ChEMBL document CHEMBL4321852, “Structure-Based and Property-Driven Optimization of N-Aryl Imidazoles toward Potent and Selective Oral RORγt Inhibitors” (J Med Chem, 2019)
Converted amounts (≈) assume the structure as drawn.

Columns and labels:
[1] = Lipophilicity of the compound, high-throughput logP using octanol-coated immobilized artificial membranes at pH 7.4; type: physicochemical
[2] = Distribution coefficient of the compound, high-throughput logD using octanol-buffer at pH 7.4 by LC-MS/MS analysis shake flask method; type: physicochemical
Cytochrome P450 3A4 = Cytochrome P450 3A4 (Homo sapiens, UniProt P08684); experiment: Time dependent inhibition of CYP3A4 (unknown origin); type: ADME; design: concentration or dose not given beside the values
Chain of Cytochrome P450 3A4 (P08684 whole entry): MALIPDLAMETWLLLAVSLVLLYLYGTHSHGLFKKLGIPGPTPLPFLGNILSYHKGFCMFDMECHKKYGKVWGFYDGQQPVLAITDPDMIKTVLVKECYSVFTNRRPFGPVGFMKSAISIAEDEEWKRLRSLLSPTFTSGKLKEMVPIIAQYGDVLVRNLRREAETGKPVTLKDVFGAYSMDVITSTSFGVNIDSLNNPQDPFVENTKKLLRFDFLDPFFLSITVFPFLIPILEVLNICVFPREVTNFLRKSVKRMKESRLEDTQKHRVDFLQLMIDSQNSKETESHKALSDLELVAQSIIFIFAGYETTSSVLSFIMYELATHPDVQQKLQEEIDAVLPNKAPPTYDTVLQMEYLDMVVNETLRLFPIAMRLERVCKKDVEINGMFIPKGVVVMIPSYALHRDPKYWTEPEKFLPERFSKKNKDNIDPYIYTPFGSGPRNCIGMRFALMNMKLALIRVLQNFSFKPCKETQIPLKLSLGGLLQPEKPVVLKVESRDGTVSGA

[3] = Inhibition of RORgammat in rat CD4+ T-cells polarized with Th17 cytokine mix assessed as inhibition of IL-17 secretion
[4] = Inverse agonist activity at RORgammat in rat whole blood assessed as reduction in Con A/IL-23-stimulated IL-17 secretion after 72 hrs by ELISA
[5] = Intrinsic clearance in rat liver microsomes; type: ADME, Microsome; conditions: read-out: CLH
[6] = Equilibrium aqueous solubility of the compound in pH 6.8 solution; type: physicochemical; conditions: aqueous pH 6.8 solution
[7] = Clearance in Sprague-Dawley rat at 1 mg/kg, iv; type: ADME, organism-based; conditions: in vivo
[8] = Volume of distribution at steady state in Sprague-Dawley rat at 1 mg/kg, iv; type: ADME, organism-based; conditions: in vivo, read-out: Vdss
[9] = Dose normalized AUC in Sprague-Dawley rat at 1 mg/kg, iv; type: ADME, organism-based; conditions: in vivo
[10] = Terminal half life in Sprague-Dawley rat at 1 mg/kg, iv; type: ADME, organism-based; conditions: in vivo, read-out: beta t1/2 (converted)
[11] = Dose normalized AUC in Sprague-Dawley rat at 3 mg/kg, po; type: ADME, organism-based; conditions: in vivo
[12] = Dose normalized Cmax in Sprague-Dawley rat at 3 mg/kg, po; type: ADME, organism-based; conditions: in vivo
[13] = Tmax in Sprague-Dawley rat at 3 mg/kg, po; type: ADME, organism-based; conditions: in vivo
[14] = Oral bioavailability in Sprague-Dawley rat at 3 mg/kg; type: ADME, organism-based; conditions: in vivo

CC(C)OC(=O)[C@H](C)N(C(=O)c1ccco1)c1c(Cl)cccc1Cl
logD [1]: 4.1

Cc1c(C(F)(F)F)nc(-c2ccc(Cl)o2)n1-c1c(Cl)ccc(N2CC(CC(=O)O)C2)c1Cl
logD [2]: 2.5
K (Cytochrome P450 3A4): > 0.1 min⁻¹
IC50 [3]: 869 nM
IC50 [4]: 696 nM

N#Cc1cccc(C#N)c1-n1cc(C2CC2)nc1-c1cnco1
logD [2]: 1.1
microsomal CLint [5]: 33 µL/min/mg
solubility thermodynamic [6]: > 1000 µM
logD [1]: 1.1

Cc1c(C(F)(F)F)nc(-c2ccc(Cl)o2)n1-c1c(Cl)ccc(N2CC(c3nnn[nH]3)C2)c1Cl
logD [2]: 2.5
microsomal CLint [5]: 49 µL/min/mg
solubility thermodynamic [6]: > 1000 µM
logD [1]: 2.5

Cc1c(Cc2ccccc2)nc(-c2ccco2)n1-c1c(Cl)cccc1Cl
IC50 [3]: 56 nM
IC50 [4]: 82 nM
logD [1]: > 6.9

Cc1c(C(F)(F)F)nc(-c2ccc(Cl)o2)n1-c1c(Cl)cccc1Cl
logD [2]: 6.3
microsomal CLint [5]: 722 µL/min/mg
solubility thermodynamic [6]: < 4 µM
logD [1]: 6.3

Cc1c(CC(C)C)nc(-c2ccco2)n1-c1c(Cl)cccc1Cl
logD [2]: > 6.9
microsomal CLint [5]: 693 µL/min/mg
IC50 [3]: 325 nM
IC50 [4]: 294 nM
solubility thermodynamic [6]: < 4 µM
logD [1]: > 6.9

CC(C)Cc1cn(-c2c(C#N)cccc2C#N)c(-c2cnco2)n1
logD [2]: 2
microsomal CLint [5]: 153 µL/min/mg
solubility thermodynamic [6]: 350 µM (≈ 111 µg/mL)
logD [1]: 2

CCOC(=O)C(C)N(C(=O)c1cccs1)c1c(C)cccc1Cl (racemic)
logD [1]: 3.6

Cc1c(CC(C)C)nc(-c2ccc(Cl)o2)n1-c1c(Cl)ccc(N2CC(C(=O)O)C2)c1Cl (single isomer, unassigned; atropisomer)
logD [2]: 3
microsomal CLint [5]: 222 µL/min/mg
clearance [7]: 228 mL/min/kg
Vd [8]: 3.6 L/kg
AUC/dose [9]: 156 nM·h
half-life [10]: 12 min
AUC/dose [11]: 70 nM·h
Cmax/dose [12]: 166 nM
solubility thermodynamic [6]: 690 µM (≈ 333 µg/mL)
logD [1]: 3
Tmax [13]: 36 min
bioavailability [14]: 45%

Cc1c(C2(C(F)(F)F)CC2)nc(-c2ccc(Cl)o2)n1-c1c(Cl)ccc(NCC(C)(C)C(=O)O)c1Cl (single isomer, unassigned; atropisomer)
logD [2]: 3.2
K (Cytochrome P450 3A4): 0.011 min⁻¹
IC50 [3]: 306 nM
IC50 [4]: 79 nM

Cc1c(C(F)(F)F)nc(-c2ccc(Cl)o2)n1-c1c(Cl)ccc(N2CC(C(=O)O)C2)c1Cl (single isomer, unassigned; atropisomer)
logD [2]: 2.4
microsomal CLint [5]: 56 µL/min/mg
K (Cytochrome P450 3A4): 0.047 min⁻¹
clearance [7]: 30 mL/min/kg
Vd [8]: 4 L/kg
AUC/dose [9]: 1179 nM·h
half-life [10]: 276 min
IC50 [3]: 1690 nM
IC50 [4]: 4510 nM
AUC/dose [11]: 945 nM·h
Cmax/dose [12]: 181 nM
solubility thermodynamic [6]: > 1000 µM
logD [1]: 2.4
Tmax [13]: 78 min
bioavailability [14]: 80%

Cc1c(C(F)(F)F)nc(-c2ccc(Cl)o2)n1-c1c(Cl)ccc(N2CC(C(N)=O)C2)c1Cl (single isomer, unassigned; atropisomer)
logD [2]: 4.9
microsomal CLint [5]: 169 µL/min/mg
solubility thermodynamic [6]: 40 µM (≈ 19.7 µg/mL)
logD [1]: 4.9
